The source made the active and inactive calls. No rule for the calls is given here.
Tested on: CCRIS mutagenicity, Ames/micronucleus/aberration tests
Test: CCRIS mutagenicity studies
[1] = Test System: AMES SALMONELLA TYPHIMURIUM, Strain/Indicator: TA98, Metabolic Activation: NONE, Method: PREINCUBATION
[2] = Test System: AMES SALMONELLA TYPHIMURIUM, Strain/Indicator: TA100, Metabolic Activation: NONE, Method: PREINCUBATION
[3] = Test System: AMES SALMONELLA TYPHIMURIUM, Strain/Indicator: TA98, Metabolic Activation: NONE, Method: STANDARD PLATE
[4] = Test System: AMES SALMONELLA TYPHIMURIUM, Strain/Indicator: TA100, Metabolic Activation: NONE, Method: STANDARD PLATE
[5] = Test System: AMES SALMONELLA TYPHIMURIUM, Strain/Indicator: TA1537, Metabolic Activation: NONE, Method: STANDARD PLATE

SMILES: N#Cc1nn(-c2c(Cl)cc(C(F)(F)F)cc2Cl)c(N)c1S(=O)C(F)(F)F (stereo unspecified)
- mutagenic call (End Point: Ames Salmonella typhimurium, Test System: TA98, Metabolic Activation: None, Method: Plate incorporation): inactive; negative
- mutagenic call (End Point: Ames Salmonella typhimurium, Test System: TA98, Metabolic Activation: Rat, Liver, S-9, Aroclor 1254, Method: Plate incorporation): inactive; negative
- mutagenic call (End Point: Ames Salmonella typhimurium, Test System: TA100, Metabolic Activation: None, Method: Plate incorporation): inactive; negative
- mutagenic call (End Point: Ames Salmonella typhimurium, Test System: TA100, Metabolic Activation: Rat, Liver, S-9, Aroclor 1254, Method: Plate incorporation): inactive; negative
- mutagenic call (End Point: Ames Salmonella typhimurium, Test System: TA1535, Metabolic Activation: None, Method: Plate incorporation): inactive; negative
- mutagenic call (End Point: Ames Salmonella typhimurium, Test System: TA1535, Metabolic Activation: Rat, Liver, S-9, Aroclor 1254, Method: Plate incorporation): inactive; negative
- mutagenic call (End Point: Ames Salmonella typhimurium, Test System: TA1537, Metabolic Activation: None, Method: Plate incorporation): inactive; negative
- mutagenic call (End Point: Ames Salmonella typhimurium, Test System: TA1537, Metabolic Activation: Rat, Liver, S-9, Aroclor 1254, Method: Plate incorporation): inactive; negative
- mutagenic call (End Point: In vitro chromosomal aberrations, Test System: Human lymphocytes (male and female), Metabolic Activation: None): inactive; negative
- mutagenic call (End Point: In vitro chromosomal aberrations, Test System: Human lymphocytes (male and female), Metabolic Activation: Rat, Liver, S-9, Aroclor 1254): inactive; negative
- mutagenic call (End Point: In vivo micronucleus, Test System: Bone marrow polychromatic erythrocytes, Species: Mouse, Strain/Sex: CD-1/Male and female, Route: Oral): inactive; negative
- mutagenic call (Test System: HGPRT mutations, Strain/Indicator: Chinese hamster V79 cells, Metabolic Activation: None): inactive; negative
- mutagenic call (Test System: HGPRT mutations, Strain/Indicator: Chinese hamster V79 cells, Metabolic Activation: Rat, Liver, S-9, Aroclor 1254): inactive; negative

SMILES: Cc1ccc(N=Nc2c(O)ccc3ccccc23)c([N+](=O)[O-])c1
- mutagenic call (Test System: AMES SALMONELLA TYPHIMURIUM, Strain/Indicator: TA98, Metabolic Activation: HAMSTER, LIVER, S-9, AROCLOR 1254 (10%), Method: PREINCUBATION): active; positive
- mutagenic call [1]: inactive; negative
- mutagenic call (Test System: AMES SALMONELLA TYPHIMURIUM, Strain/Indicator: TA98, Metabolic Activation: RAT, LIVER, S-9, AROCLOR 1254 (10%), Method: PREINCUBATION): inactive; negative
- mutagenic call (Test System: AMES SALMONELLA TYPHIMURIUM, Strain/Indicator: TA100, Metabolic Activation: HAMSTER, LIVER, S-9, AROCLOR 1254 (10%), Method: PREINCUBATION): active; positive
- mutagenic call [2]: inactive; negative
- mutagenic call (Test System: AMES SALMONELLA TYPHIMURIUM, Strain/Indicator: TA1535, Metabolic Activation: HAMSTER, LIVER, S-9, AROCLOR 1254 (10%), Method: PREINCUBATION): inactive; negative
- mutagenic call (Test System: AMES SALMONELLA TYPHIMURIUM, Strain/Indicator: TA1535, Metabolic Activation: NONE, Method: PREINCUBATION): inactive; negative
- mutagenic call (Test System: AMES SALMONELLA TYPHIMURIUM, Strain/Indicator: TA1535, Metabolic Activation: RAT, LIVER, S-9, AROCLOR 1254 (10%), Method: PREINCUBATION): inactive; negative
- mutagenic call (Test System: AMES SALMONELLA TYPHIMURIUM, Strain/Indicator: TA1537, Metabolic Activation: HAMSTER, LIVER, S-9, AROCLOR 1254 (10%), Method: PREINCUBATION): inactive; negative
- mutagenic call (Test System: AMES SALMONELLA TYPHIMURIUM, Strain/Indicator: TA1537, Metabolic Activation: NONE, Method: PREINCUBATION): inactive; negative
- mutagenic call (Test System: AMES SALMONELLA TYPHIMURIUM, Strain/Indicator: TA1537, Metabolic Activation: RAT, LIVER, S-9, AROCLOR 1254 (10%), Method: PREINCUBATION): inactive; negative

SMILES: CC(C)(N=NC(C)(C)C(=N)N)C(=N)N
- mutagenic call [1]: active; positive
- mutagenic call (Test System: AMES SALMONELLA TYPHIMURIUM, Strain/Indicator: TA98, Metabolic Activation: RAT, LIVER, S-9, PHENOBARBITAL AND 5,6-BENZOFLAVONE, Method: PREINCUBATION): active; positive
- mutagenic call [2]: active; positive
- mutagenic call (Test System: AMES SALMONELLA TYPHIMURIUM, Strain/Indicator: TA100, Metabolic Activation: RAT, LIVER, S-9, PHENOBARBITAL AND 5,6-BENZOFLAVONE, Method: PREINCUBATION): active; positive

SMILES: O=c1c2c(O)cccc2oc2cc3c(c(O)c12)[C@@H]1CCO[C@@H]1O3
- mutagenic call (Test System: AMES SALMONELLA TYPHIMURIUM, Strain/Indicator: TA98, Metabolic Activation: RAT, LIVER, S-9, PHENOBARBITAL, Method: STANDARD PLATE): inactive; negative
- mutagenic call (Test System: AMES SALMONELLA TYPHIMURIUM, Strain/Indicator: TA100, Metabolic Activation: RAT, LIVER, S-9, PHENOBARBITAL, Method: STANDARD PLATE): inactive; negative

SMILES: [N-]=[N+]=N[C@@H](c1ccccc1)[C@H](O)CO
- mutagenic call (Test System: AMES SALMONELLA TYPHIMURIUM, Strain/Indicator: TA100, Metabolic Activation: RAT, LIVER, S-9, PCB, Method: PREINCUBATION): active; positive

SMILES: Cc1ccc2cc3c(c4c2c1CC4)C1NC1c1ccccc1-3 (stereo unspecified)
- mutagenic call [3]: active; positive
- mutagenic call [4]: active; positive

SMILES: C=C(C)C(=O)OCCOC(=O)C(=C)C
- mutagenic call (Test System: AMES SALMONELLA TYPHIMURIUM, Strain/Indicator: TA98, Metabolic Activation: HAMSTER, LIVER, S-9, AROCLOR 1254, Method: STANDARD PLATE): inactive; negative
- mutagenic call [3]: inactive; negative
- mutagenic call (Test System: AMES SALMONELLA TYPHIMURIUM, Strain/Indicator: TA98, Metabolic Activation: RAT, LIVER, AROCLOR 1254, Method: STANDARD PLATE): inactive; negative
- mutagenic call (Test System: AMES SALMONELLA TYPHIMURIUM, Strain/Indicator: TA98, Metabolic Activation: RAT, LIVER, S-9, AROCLOR 1254, Method: STANDARD PLATE): inactive; negative
- mutagenic call (Test System: AMES SALMONELLA TYPHIMURIUM, Strain/Indicator: TA98, Metabolic Activation: RAT, LIVER, S-9, SODIUM PHENOBARBITAL, Method: STANDARD PLATE): inactive; negative
- mutagenic call (Test System: AMES SALMONELLA TYPHIMURIUM, Strain/Indicator: TA100, Metabolic Activation: HAMSTER, LIVER, S-9, AROCLOR 1254, Method: STANDARD PLATE): inactive; negative
- mutagenic call [4]: inactive; negative
- mutagenic call (Test System: AMES SALMONELLA TYPHIMURIUM, Strain/Indicator: TA100, Metabolic Activation: RAT, LIVER, S-9, AROCLOR 1254, Method: STANDARD PLATE): inactive; negative
- mutagenic call (Test System: AMES SALMONELLA TYPHIMURIUM, Strain/Indicator: TA100, Metabolic Activation: RAT, LIVER, S-9, SODIUM PHENOBARBITAL, Method: STANDARD PLATE): inactive; negative
- mutagenic call (Test System: AMES SALMONELLA TYPHIMURIUM, Strain/Indicator: TA1535, Metabolic Activation: HAMSTER, LIVER, S-9, AROCLOR 1254, Method: STANDARD PLATE): inactive; negative
- mutagenic call (Test System: AMES SALMONELLA TYPHIMURIUM, Strain/Indicator: TA1535, Metabolic Activation: NONE, Method: STANDARD PLATE): inactive; negative
- mutagenic call (Test System: AMES SALMONELLA TYPHIMURIUM, Strain/Indicator: TA1535, Metabolic Activation: RAT, LIVER, S-9, AROCLOR 1254, Method: STANDARD PLATE): inactive; negative
- mutagenic call (Test System: AMES SALMONELLA TYPHIMURIUM, Strain/Indicator: TA1535, Metabolic Activation: RAT, LIVER, S-9, SODIUM PHENOBARBITAL, Method: STANDARD PLATE): inactive; negative
- mutagenic call (Test System: AMES SALMONELLA TYPHIMURIUM, Strain/Indicator: TA1537, Metabolic Activation: HAMSTER, LIVER, S-9, AROCLOR 1254, Method: STANDARD PLATE): inactive; negative
- mutagenic call [5]: inactive; negative
- mutagenic call (Test System: AMES SALMONELLA TYPHIMURIUM, Strain/Indicator: TA1537, Metabolic Activation: RAT, LIVER, S-9, AROCLOR 1254, Method: STANDARD PLATE): inactive; negative
- mutagenic call (Test System: AMES SALMONELLA TYPHIMURIUM, Strain/Indicator: TA1537, Metabolic Activation: RAT, LIVER, S-9, SODIUM PHENOBARBITAL, Method: STANDARD PLATE): inactive; negative
- mutagenic call (Test System: AMES SALMONELLA TYPHIMURIUM, Strain/Indicator: TA1538, Metabolic Activation: NONE, Method: STANDARD PLATE): inactive; negative
- mutagenic call (Test System: AMES SALMONELLA TYPHIMURIUM, Strain/Indicator: TA1538, Metabolic Activation: RAT, LIVER, S-9, AROCLOR 1254, Method: STANDARD PLATE): inactive; negative
- mutagenic call (Test System: AMES SALMONELLA TYPHIMURIUM, Strain/Indicator: TA1538, Metabolic Activation: RAT, LIVER, S-9, SODIUM PHENOBARBITAL, Method: STANDARD PLATE): inactive; negative
- mutagenic call (Test System: Mouse lymphoma, Strain/Indicator: L5178Y (tk+/tk-), Metabolic Activation: Rat, Liver, S-9, Aroclor 1254, Method: Suspension/plate): active; positive

SMILES: CN(C)CCNC(=O)c1cccc2c(=O)c3ccccc3[nH]c12
- mutagenic call [5]: active; positive

SMILES: O=[N+]([O-])c1ccc(CN2C3c4ccccc4-c4ccccc4C32)cc1 (stereo unspecified)
- mutagenic call [4]: active; positive
